In ChEMBL document CHEMBL2169818, “Syntheses and biological activities of sulfoximine-based acyclic triaryl olefins” (Bioorg Med Chem Lett, 2012):

Legend:
[1] = biological target: Estrogen receptor beta (Homo sapiens) (UniProt Q92731); assay: Displacement of [3H]-estradiol from human recombinant ERbeta expressed in Sf21 cells at 10 uM after 2 hrs
[2] = biological target: T1, Estrogen receptor (Homo sapiens) (UniProt P03372); assay: Displacement of [3H]-estradiol from human recombinant ERalpha expressed in Sf21 cells at 10 uM after 2 hrs
T1 sequence (whole entry): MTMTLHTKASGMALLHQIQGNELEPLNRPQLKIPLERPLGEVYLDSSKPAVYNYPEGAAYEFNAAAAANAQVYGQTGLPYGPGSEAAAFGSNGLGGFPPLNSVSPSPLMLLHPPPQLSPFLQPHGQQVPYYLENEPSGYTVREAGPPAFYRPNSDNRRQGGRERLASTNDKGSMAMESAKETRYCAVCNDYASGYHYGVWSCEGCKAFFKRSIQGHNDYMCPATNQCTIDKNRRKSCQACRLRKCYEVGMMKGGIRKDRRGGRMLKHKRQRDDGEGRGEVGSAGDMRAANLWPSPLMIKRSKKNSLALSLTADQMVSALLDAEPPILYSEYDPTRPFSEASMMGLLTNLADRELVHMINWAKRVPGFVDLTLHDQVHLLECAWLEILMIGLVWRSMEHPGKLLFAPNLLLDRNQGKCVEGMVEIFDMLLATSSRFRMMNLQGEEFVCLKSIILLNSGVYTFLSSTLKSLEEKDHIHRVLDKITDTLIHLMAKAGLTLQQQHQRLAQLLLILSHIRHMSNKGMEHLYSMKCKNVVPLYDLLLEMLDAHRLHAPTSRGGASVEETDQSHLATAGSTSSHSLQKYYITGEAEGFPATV

[3] = biological target: T2, Prostaglandin G/H synthase 1 (Homo sapiens, UniProt P23219); assay: Inhibition of human platelet COX1 using arachidonic acid as substrate at 10 uM preincubated for 15 mins before arachidonic acid addition measured after 15 mins
T2 sequence (P23219 whole entry): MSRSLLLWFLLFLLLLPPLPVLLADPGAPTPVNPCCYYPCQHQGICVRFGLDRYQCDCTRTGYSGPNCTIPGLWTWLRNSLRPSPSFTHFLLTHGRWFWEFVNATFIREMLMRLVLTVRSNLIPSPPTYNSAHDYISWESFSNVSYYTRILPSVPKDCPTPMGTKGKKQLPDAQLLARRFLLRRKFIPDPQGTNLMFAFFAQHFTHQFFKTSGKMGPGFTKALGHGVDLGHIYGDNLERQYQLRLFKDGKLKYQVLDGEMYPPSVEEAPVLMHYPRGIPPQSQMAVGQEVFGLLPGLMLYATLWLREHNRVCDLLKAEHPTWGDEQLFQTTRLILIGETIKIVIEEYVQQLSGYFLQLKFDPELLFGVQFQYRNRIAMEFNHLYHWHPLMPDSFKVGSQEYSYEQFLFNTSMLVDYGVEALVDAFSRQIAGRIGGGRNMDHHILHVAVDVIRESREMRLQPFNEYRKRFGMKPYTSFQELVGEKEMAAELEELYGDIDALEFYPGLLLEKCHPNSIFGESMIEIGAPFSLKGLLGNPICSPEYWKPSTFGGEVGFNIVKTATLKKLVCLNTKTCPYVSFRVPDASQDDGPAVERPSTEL

[4] = biological target: T3, Prostaglandin G/H synthase 2 (Homo sapiens, UniProt P35354); assay: Inhibition of COX2
T3 sequence (P35354 whole entry): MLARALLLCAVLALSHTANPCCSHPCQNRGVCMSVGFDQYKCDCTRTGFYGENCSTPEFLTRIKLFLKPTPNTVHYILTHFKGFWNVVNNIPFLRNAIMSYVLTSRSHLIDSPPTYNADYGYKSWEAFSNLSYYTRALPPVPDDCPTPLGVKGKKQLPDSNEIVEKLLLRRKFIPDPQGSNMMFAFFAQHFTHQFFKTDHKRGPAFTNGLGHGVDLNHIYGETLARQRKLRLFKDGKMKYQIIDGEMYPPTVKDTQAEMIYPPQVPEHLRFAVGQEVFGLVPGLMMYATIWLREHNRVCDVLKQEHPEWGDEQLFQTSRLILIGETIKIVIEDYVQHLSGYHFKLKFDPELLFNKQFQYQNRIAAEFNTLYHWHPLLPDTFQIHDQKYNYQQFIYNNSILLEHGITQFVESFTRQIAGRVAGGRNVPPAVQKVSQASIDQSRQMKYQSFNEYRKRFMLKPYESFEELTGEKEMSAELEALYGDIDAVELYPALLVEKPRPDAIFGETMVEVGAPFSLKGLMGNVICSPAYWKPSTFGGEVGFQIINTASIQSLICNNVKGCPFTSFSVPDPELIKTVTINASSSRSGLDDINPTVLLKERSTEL

[5] = biological target: T2, Prostaglandin G/H synthase 1; assay: Inhibition of COX1
[6] = biological target: T4, Prostaglandin G/H synthase 2 (Homo sapiens) (UniProt P35354); assay: Inhibition of human recombinant COX2 expressed in Sf21 cells using arachidonic acid as substrate at 10 uM preincubated for 15 mins before arachidonic acid addition measured after 5 mins
T4 sequence (whole entry): T3 sequence (P35354 whole entry)

Estrogen receptor beta (Homo sapiens), sequence (Q92731 whole entry): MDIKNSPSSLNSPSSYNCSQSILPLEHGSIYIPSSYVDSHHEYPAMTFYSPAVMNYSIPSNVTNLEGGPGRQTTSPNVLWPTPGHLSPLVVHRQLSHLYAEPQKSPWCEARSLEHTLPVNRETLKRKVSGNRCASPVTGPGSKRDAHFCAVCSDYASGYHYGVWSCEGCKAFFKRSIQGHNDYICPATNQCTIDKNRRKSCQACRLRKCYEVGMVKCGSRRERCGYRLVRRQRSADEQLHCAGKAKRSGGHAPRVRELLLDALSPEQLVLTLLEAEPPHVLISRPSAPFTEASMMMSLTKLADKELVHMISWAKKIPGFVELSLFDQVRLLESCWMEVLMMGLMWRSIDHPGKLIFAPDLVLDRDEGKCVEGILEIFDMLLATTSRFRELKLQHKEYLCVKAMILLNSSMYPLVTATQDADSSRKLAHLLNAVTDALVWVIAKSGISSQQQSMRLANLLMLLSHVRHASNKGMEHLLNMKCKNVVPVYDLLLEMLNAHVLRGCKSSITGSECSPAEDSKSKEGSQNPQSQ

SMILES | inhibition [1] [%] | inhibition [2] [%] | inhibition [3] [%] | IC50 [4] [nM] | IC50 [5] [nM] | inhibition [6] [%]
CC(=C(c1ccccc1)c1ccccc1)c1ccc([S+](C)(=N)[O-])cc1 (stereo not given) | 53 | 77 | 23 |  |  | 
CCCCC(=C(c1ccccc1)c1ccccc1)c1ccc(S(C)(=O)=O)cc1 | 77 | -6 |  | 14 | > 100000 | 
CCCCC(=C(c1ccccc1)c1ccccc1)c1ccc([S+](C)(=N)[O-])cc1 (stereo not given) | 80 | 91 | 12 |  |  | 17
CCCCC(=C(c1ccccc1)c1ccccc1)c1ccc([S+](C)([O-])=NC#N)cc1 (stereo not given) | 60 | 54 | 5 |  |  | 10
